Data: ChEMBL document CHEMBL2074299, “Hepatic uptake of the novel antifungal agent caspofungin” (Drug Metab Dispos, 2005)

Key:
Format in all cases: functional, cell-based
[1] = molecular target: T1, NTCP (hepatic sodium/bile acid cotransporter) (Homo sapiens, UniProt Q14973); test: TP_TRANSPORTER: inhibition of Taurocholate uptake (Caspofungin:100 uM) in NTCP-expressing HeLa cells; parameters: scale not given: the % may be the effect or the level left; settings: HeLa cells that express NTCP, probe taurocholate, read-out: Activity
T1 sequence (Q14973 whole entry): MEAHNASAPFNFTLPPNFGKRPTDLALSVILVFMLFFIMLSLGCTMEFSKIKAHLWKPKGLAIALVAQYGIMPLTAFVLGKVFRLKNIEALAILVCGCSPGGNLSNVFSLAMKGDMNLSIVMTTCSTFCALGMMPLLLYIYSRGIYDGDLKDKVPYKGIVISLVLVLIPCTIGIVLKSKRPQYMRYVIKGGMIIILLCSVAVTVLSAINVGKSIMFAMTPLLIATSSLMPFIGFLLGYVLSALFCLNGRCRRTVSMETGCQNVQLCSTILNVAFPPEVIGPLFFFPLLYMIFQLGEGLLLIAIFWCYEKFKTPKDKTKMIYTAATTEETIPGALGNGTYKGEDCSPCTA

[2] = molecular target: ATP-dependent translocase ABCB1 (Homo sapiens, UniProt P08183); test: TP_TRANSPORTER: cell accumulation of vinblastine in KB-V1 cells
Sequence of ATP-dependent translocase ABCB1 (P08183 whole entry): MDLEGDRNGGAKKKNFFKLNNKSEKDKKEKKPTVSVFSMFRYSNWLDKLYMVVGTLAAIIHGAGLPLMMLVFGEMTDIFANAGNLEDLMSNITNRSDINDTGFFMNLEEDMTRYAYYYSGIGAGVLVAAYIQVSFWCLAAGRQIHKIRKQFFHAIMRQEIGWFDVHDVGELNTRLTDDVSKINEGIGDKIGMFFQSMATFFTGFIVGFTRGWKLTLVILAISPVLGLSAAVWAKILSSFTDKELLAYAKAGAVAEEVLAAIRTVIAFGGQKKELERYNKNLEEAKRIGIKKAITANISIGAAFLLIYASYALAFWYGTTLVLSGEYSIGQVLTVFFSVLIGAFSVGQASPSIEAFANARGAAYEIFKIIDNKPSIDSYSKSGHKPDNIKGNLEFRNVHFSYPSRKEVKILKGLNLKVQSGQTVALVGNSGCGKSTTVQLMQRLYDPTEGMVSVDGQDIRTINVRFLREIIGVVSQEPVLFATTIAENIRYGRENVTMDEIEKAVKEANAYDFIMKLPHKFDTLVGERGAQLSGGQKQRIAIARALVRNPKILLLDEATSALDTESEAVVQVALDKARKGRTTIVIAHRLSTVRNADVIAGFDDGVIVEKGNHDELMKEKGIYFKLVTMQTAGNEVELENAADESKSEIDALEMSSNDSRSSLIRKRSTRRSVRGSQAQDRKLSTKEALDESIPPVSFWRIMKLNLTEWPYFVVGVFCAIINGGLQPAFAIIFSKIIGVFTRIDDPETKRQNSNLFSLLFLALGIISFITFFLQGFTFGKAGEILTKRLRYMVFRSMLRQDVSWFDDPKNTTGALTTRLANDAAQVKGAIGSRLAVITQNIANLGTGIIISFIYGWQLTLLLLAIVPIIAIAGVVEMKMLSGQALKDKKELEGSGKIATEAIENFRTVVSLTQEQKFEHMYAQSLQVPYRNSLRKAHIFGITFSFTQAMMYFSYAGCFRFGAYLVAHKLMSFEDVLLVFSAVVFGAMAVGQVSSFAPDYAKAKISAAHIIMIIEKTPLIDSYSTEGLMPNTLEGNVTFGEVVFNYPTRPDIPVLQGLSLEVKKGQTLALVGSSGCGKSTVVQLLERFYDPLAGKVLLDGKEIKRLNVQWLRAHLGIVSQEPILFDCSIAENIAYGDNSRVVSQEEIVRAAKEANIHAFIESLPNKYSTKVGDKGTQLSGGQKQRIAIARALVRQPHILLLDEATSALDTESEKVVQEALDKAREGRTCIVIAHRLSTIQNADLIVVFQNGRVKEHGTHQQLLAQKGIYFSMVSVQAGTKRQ

[3] = molecular target: T2, Solute carrier organic anion transporter family member 1B1 (Homo sapiens, UniProt Q9Y6L6); test: TP_TRANSPORTER: uptake in OATP1B1-expressing Tet-on HeLa cells
T2 sequence (Q9Y6L6 whole entry): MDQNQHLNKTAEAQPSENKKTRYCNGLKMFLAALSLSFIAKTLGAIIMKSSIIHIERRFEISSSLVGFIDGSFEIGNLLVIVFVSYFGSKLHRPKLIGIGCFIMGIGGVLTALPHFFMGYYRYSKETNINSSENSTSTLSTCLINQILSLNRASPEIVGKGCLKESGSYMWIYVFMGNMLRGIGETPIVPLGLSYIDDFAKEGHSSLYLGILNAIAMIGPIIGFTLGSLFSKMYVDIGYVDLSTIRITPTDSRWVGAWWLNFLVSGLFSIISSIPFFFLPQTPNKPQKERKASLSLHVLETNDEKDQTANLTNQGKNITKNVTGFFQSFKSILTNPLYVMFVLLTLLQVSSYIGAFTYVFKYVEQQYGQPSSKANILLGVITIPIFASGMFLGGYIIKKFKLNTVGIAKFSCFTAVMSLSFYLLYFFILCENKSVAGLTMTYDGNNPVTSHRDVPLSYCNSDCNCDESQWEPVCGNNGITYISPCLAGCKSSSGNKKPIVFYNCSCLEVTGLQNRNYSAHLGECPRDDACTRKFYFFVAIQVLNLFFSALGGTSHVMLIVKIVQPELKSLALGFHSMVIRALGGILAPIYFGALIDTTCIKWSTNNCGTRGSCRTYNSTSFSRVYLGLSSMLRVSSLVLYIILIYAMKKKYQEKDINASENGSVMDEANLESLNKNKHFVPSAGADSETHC

[4] = molecular target: T2, Solute carrier organic anion transporter family member 1B1; test: TP_TRANSPORTER: inhibition of estradiol-17beta-D-glucuronide uptake (Caspofungin:100 uM) in OATP1B1-expressing HeLa cells; parameters: scale not given: the % may be the effect or the level left
[5] = molecular target: T3, Solute carrier family 22 member 6 (Homo sapiens, UniProt Q4U2R8); test: TP_TRANSPORTER: inhibition of p-amino hippurate uptake (Caspofungin:100 uM) in OAT1-expressing HeLa cells; parameters: scale not given: the % may be the effect or the level left
T3 sequence (Q4U2R8 whole entry): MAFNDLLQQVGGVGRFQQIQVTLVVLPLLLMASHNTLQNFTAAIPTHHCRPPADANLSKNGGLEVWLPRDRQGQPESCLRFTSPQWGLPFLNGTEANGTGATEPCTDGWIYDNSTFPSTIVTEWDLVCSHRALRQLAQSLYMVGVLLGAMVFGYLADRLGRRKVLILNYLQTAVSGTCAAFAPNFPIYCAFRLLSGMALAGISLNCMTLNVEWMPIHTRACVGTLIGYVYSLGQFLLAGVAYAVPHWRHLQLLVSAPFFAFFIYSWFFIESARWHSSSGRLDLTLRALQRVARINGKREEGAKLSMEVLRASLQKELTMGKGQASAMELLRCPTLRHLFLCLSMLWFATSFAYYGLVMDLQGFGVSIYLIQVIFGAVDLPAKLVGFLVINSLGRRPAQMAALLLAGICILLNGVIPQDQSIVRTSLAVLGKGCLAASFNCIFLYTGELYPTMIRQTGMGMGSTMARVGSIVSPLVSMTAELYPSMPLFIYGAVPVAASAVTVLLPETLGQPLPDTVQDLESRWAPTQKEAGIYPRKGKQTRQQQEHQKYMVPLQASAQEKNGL

[6] = molecular target: T4, OCT1 (solute carrier family 22 member 1) (Homo sapiens, UniProt O15245); test: TP_TRANSPORTER: inhibition of Tetraethyl ammonium uptake (Caspofungin:100 uM) in OCT1-expressing HeLa cells; parameters: scale not given: the % may be the effect or the level left; settings: HeLa cells that express OCT1, probe tetraethyl ammonium, read-out: Activity
T4 sequence (O15245 whole entry): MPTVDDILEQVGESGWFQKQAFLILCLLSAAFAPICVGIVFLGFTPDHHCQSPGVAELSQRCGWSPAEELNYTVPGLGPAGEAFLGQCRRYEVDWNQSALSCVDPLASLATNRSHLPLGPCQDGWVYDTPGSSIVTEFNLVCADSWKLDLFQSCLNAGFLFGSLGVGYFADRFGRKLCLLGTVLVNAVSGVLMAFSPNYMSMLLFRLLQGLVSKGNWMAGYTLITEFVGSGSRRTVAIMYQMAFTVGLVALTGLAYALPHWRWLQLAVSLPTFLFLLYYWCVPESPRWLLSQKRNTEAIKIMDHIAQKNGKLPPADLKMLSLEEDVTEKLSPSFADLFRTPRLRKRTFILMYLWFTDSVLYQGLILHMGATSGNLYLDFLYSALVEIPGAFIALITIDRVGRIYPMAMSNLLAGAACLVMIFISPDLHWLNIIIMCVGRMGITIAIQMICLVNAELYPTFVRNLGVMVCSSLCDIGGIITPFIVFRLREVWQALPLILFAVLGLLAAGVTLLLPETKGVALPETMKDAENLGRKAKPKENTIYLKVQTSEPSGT

[7] = molecular target: T5, Solute carrier organic anion transporter family member 1B3 (Homo sapiens, UniProt Q9NPD5); test: TP_TRANSPORTER: uptake in OATP1B3-expressing Tet-on HeLa cells
T5 sequence (Q9NPD5 whole entry): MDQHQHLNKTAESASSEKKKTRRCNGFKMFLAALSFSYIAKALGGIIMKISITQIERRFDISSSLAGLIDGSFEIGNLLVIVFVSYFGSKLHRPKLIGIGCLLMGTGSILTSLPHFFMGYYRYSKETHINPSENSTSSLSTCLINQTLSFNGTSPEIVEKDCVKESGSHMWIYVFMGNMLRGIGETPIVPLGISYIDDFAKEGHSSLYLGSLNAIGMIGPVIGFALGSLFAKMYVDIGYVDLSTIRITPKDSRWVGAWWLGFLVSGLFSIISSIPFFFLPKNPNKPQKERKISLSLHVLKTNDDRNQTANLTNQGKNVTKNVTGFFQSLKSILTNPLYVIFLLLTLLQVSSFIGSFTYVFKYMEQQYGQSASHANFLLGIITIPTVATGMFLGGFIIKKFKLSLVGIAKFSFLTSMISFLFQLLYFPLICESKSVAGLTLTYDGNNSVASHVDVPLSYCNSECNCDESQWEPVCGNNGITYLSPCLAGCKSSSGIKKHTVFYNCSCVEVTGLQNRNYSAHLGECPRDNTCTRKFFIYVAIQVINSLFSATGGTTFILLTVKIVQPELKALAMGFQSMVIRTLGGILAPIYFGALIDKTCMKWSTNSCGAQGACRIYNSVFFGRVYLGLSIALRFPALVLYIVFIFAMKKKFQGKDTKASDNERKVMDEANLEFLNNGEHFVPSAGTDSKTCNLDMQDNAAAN

[8] = molecular target: T3, Solute carrier family 22 member 6; test: TP_TRANSPORTER: inhibition of p-amino hippurate uptake (Indomethacin:100 uM) in OAT1-expressing HeLa cells; parameters: scale not given: the % may be the effect or the level left
[9] = molecular target: T6, OATP1B1 (solute carrier organic anion transporter family member 1B1) (Homo sapiens, UniProt Q9Y6L6); test: TP_TRANSPORTER: inhibition of estradiol-17beta-D-glucuronide uptake (Lovastatin:10 uM) in OATP1B1-expressing HeLa cells; parameters: scale not given: the % may be the effect or the level left; settings: HeLa cells that express OATP1B1, probe estradiol-17beta-D-glucuronide, read-out: Activity
T6 sequence (Q9Y6L6 whole entry): T2 sequence (Q9Y6L6 whole entry)

[10] = molecular target: T4, OCT1 (solute carrier family 22 member 1); test: TP_TRANSPORTER: inhibition of Tetraethyl ammonium uptake (Quinidine:100 uM) in OCT1-expressing HeLa cells; parameters: scale not given: the % may be the effect or the level left; settings: HeLa cells that express OCT1, probe tetraethyl ammonium, read-out: Activity
[11] = molecular target: T1, NTCP (hepatic sodium/bile acid cotransporter); test: TP_TRANSPORTER: inhibition of Taurocholate uptake (Ursodeoxycholate:10 micro;M) in NTCP-expressing HeLa cells; parameters: scale not given: the % may be the effect or the level left; settings: HeLa cells that express NTCP, probe taurocholate, read-out: Activity

With `CC[C@H](C)C[C@H](C)CCCCCCCCC(=O)N[C@H]1C[C@@H](O)[C@@H](NCCN)NC(=O)[C@@H]2[C@@H](O)CCN2C(=O)[C@H]([C@H](O)CCN)NC(=O)[C@H]([C@H](O)[C@@H](O)c2ccc(O)cc2)NC(=O)[C@@H]2C[C@@H](O)CN2C(=O)[C@H]([C@@H](C)O)NC1=O` [CASPOFUNGIN] the activity at 100 µM [1] was 10%, the Activity [2] was “inhibitor [+]” and the Activity [3] was “substrate [+]”. For the same compound, the Activity [4] was 5%, the Activity [5] was 40% and the activity at 100 µM [6] was 30%. For the same compound, the Activity [7] was “is not a substrate [-]”.

For `COc1ccc2c(c1)c(CC(=O)O)c(C)n2C(=O)c1ccc(Cl)cc1` [INDOMETHACIN], the Activity [8] was 20%.

Work on `CC[C@H](C)C(=O)O[C@H]1C[C@@H](C)C=C2C=C[C@H](C)[C@H](CC[C@@H]3C[C@@H](O)CC(=O)O3)[C@H]21` [LOVASTATIN] yielded an activity at 10 µM [9] of 40%.

`C=C[C@H]1C[N@@]2CC[C@H]1C[C@@H]2[C@@H](O)c1ccnc2ccc(OC)cc12` [QUINIDINE] gave an activity at 100 µM [10] of 20%.

For `C[C@H](CCC(=O)O)[C@H]1CC[C@H]2[C@@H]3[C@@H](O)C[C@@H]4C[C@H](O)CC[C@]4(C)[C@H]3CC[C@]12C` [URSODIOL], the activity at 10 µM [11] was 30%.
